Results reported in ChEMBL document CHEMBL4184250, “Structure-activity studies of a macrocyclic peptide inhibitor of histone lysine demethylase 4A” (Bioorg Med Chem, 2018).

Key:
[1] = target: T1, Lysine-specific demethylase 4A (Homo sapiens, UniProt O75164); experiment: Stabilization of FLAG-tagged KDM4A (1 to 1064 residues) (unknown origin) expressed in human U2OS cells measured after 3 hrs by CETSA; format: cell-based
T1 sequence (O75164 whole entry): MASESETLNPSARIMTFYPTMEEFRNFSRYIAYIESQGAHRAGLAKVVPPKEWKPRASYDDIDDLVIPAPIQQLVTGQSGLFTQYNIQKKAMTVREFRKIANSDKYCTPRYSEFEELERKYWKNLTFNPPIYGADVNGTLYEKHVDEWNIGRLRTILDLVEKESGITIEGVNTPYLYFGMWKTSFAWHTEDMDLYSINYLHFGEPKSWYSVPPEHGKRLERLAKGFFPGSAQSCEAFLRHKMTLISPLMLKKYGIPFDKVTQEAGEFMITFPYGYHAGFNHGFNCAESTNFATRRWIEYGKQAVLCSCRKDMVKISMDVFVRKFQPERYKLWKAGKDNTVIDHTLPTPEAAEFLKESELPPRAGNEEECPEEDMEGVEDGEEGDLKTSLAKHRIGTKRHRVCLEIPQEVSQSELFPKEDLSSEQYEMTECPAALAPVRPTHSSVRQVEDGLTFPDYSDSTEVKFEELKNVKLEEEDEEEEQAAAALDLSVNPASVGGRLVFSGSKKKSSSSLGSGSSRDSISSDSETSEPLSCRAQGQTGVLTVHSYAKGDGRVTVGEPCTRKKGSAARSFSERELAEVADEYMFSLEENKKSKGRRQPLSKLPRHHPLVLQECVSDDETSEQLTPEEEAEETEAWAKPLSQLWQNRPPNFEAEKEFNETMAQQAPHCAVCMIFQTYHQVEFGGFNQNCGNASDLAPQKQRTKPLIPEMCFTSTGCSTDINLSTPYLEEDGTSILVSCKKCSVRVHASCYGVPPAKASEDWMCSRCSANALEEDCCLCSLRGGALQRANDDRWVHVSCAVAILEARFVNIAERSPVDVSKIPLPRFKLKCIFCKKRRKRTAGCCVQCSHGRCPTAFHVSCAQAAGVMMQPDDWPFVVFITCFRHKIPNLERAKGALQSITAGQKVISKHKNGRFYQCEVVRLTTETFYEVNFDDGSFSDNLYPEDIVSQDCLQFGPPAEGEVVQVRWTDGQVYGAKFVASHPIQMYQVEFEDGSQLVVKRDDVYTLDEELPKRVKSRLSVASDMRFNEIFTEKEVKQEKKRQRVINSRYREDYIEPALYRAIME

[2] = Drug uptake in human MCF7 cells assessed as cell area stained at 10 uM after 3 hrs by Hoechst 33342 staining based confocal microscopic analysis; format: ADME; settings: mcf7, 3 h
[3] = target: T1, Lysine-specific demethylase 4A; experiment: Binding affinity to N-terminal His6-tagged KDM4A (1 to 359 residues) (unknown origin) expressed in Escherichia coli BL21(DE3) Rosetta by bio-layer interferometric method; settings: read-out: Kd(app)
[4] = target: T2, Lysine-specific demethylase 4C (Homo sapiens, UniProt Q9H3R0); experiment: Inhibition of KDM4C (unknown origin) expressed in Escherichia coli using biotinylated peptide as substrate pretreated for 15 mins followed by substrate addition by Alphascreen assay
T2 sequence (Q9H3R0 whole entry): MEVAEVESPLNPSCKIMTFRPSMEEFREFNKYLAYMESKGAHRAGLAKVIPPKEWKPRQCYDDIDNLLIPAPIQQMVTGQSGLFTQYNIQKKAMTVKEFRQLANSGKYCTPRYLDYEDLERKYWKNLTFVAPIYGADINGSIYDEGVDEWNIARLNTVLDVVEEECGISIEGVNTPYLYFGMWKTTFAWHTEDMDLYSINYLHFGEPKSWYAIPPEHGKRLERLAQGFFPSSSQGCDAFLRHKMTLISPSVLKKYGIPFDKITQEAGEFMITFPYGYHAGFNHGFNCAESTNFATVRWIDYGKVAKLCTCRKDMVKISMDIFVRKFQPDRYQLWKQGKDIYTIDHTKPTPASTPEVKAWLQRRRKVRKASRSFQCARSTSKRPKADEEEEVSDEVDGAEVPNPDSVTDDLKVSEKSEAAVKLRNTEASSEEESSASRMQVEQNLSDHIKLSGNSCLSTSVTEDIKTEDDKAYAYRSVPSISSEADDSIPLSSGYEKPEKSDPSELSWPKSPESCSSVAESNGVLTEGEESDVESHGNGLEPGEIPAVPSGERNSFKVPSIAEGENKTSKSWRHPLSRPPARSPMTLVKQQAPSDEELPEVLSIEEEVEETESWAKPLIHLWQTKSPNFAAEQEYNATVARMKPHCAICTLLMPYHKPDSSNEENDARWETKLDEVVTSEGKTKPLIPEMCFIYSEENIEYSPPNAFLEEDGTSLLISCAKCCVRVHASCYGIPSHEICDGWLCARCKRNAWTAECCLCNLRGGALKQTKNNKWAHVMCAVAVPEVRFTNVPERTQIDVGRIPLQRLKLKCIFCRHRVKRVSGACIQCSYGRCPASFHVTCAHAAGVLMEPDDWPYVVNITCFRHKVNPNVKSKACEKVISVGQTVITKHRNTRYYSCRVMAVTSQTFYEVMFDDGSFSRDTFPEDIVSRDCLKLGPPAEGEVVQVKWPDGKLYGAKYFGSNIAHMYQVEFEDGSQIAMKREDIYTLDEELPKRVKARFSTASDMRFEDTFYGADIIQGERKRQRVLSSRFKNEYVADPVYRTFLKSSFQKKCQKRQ

[5] = target: T1, Lysine-specific demethylase 4A; experiment: Inhibition of KDM4A (unknown origin) expressed in Escherichia coli using biotinylated peptide as substrate pretreated for 15 mins followed by substrate addition by Alphascreen assay

- EC50 [1]: > 100 µM
- Drug uptake [2]: 17.4%
- Kd [3]: 0.0298 µM
- IC50 [4]: 0.046 µM
- IC50 [5]: 0.041 µM
SMILES: CC(C)[C@@H]1NC(=O)[C@@H](Cc2ccc(O)cc2)NC(=O)CSC[C@@H](C(N)=O)NC(=O)[C@H](Cc2c[nH]c3ccccc23)NC(=O)[C@H](Cc2ccc(O)cc2)NC(=O)[C@H](Cc2c[nH]c3ccccc23)NC(=O)[C@H](CCCNC(=N)N)NC(=O)[C@H](Cc2c[nH]c3ccccc23)NC(=O)CNC(=O)[C@H](CO)NC(=O)[C@H](CCCNC(=N)N)NC(=O)[C@H]([C@@H](C)O)NC(=O)[C@H](CC(N)=O)NC(=O)[C@H](Cc2ccc(O)cc2)NC1=O
